Several values for one entry are separate records, joined by “and”; a condition that tells them apart may be missing. Equal values may be shown once.
Experiments:
PctA-LBD Y121A = target: T1, PctA-LBD Y121A (Pseudomonas aeruginosa, UniProt G3XD24, Y121A); experiment: biochemical; format: binding; conditions: PctA-LBD Y121A 70 μM; DPD/AI-2 700 μM
T1 construct: Amino acids 30-278 and 36-360 of PctA and TlpQ, respectively; His6 (N, cleaved yes); made in house; host or cells: E. coli BL21(DE3) (pET-28a derivative)
T1 sequence (G3XD24 30-278 Y121A): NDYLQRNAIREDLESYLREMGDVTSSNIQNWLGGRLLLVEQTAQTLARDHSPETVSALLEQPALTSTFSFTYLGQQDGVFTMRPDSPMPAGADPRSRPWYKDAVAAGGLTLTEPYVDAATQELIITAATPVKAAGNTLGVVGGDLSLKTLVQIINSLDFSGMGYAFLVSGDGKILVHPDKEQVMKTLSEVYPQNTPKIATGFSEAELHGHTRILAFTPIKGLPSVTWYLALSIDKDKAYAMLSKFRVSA

KinD-LBD = target: T2, KinD-LBD (Bacillus subtilis, UniProt O31671); experiment: ITC binding to KinD-LBD; set-up: species or system B. subtilis; conditions: 700 μM DPD/AI-2 into 70 μM KinD-LBD
T2 construct: the LBD of HK KinD from B. subtilis; His6 (N, cleaved yes); made in house; host or cells: E. coli BL21(DE3) (pET-28a derivative)
T2 sequence (O31671 37-250): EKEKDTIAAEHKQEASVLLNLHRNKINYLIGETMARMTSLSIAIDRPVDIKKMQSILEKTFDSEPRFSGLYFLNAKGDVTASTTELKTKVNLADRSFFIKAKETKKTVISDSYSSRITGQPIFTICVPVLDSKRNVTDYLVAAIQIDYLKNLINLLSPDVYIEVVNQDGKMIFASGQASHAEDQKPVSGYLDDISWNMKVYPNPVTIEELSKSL

LsrB = conditions: established receptor LsrB; cited from earlier work
P. aeruginosa PAO1 = experiment: confocal laser-scanning microscopy of static biofilms (biovolume, COMSTAT); conditions: 100 nM DPD/AI-2
Protocol: Biofilms were stained with crystal violet and quantified using optical density measurement after incubation at 37 °C for 48 h. […] Images were reconstructed using the Imaris 9.0 software package (Bitplane, AG) (Supplementary Fig. 6) and biofilm biovolumes were quantified using COMSTAT (www.comstat.dk). Biovolumes were calculated from three biological replicates and each biological replicate was derived from an average of five confocal images.
For confocal laser-scanning microscopy and image analysis of static biofilms, overnight cultures of P. aeruginosa strains carrying pME6032-mCherry were diluted with TSB medium to an OD600 of 0.01 (~2 × 10^7 CFU ml^−1). […] The cultures were incubated at 37 °C under static conditions and biofilms were visualized using a Revolution XD laser-scanning confocal microscope (Andor, Belfast, Northern Ireland) after 1, 10, and 19 h. The excitation/emission wavelength for mCherry was 568/590 nm. Images were reconstructed using the Imaris 9.0 software package (Bitplane, AG) and the biovolumes were calculated using COMSTAT 2.1[46] plugin in ImageJ software (version 1.48). Biovolumes were measured and calculated from three biological replicates and each biological replicate was derived from an average of five confocal images.

rpHK1S-Z16 = experiment: in vitro DGC activity assay, c-di-GMP synthesis (HPLC); format: biochemical, R. palustris; conditions: 100 μM GTP, 30 °C
Protocol: The DGC activity of rpHK1S-Z16 was determined by measuring the synthesis of c-di-GMP using an HPLC-based method. […] The reaction was initiated by adding 100 μM GTP and the reaction was allowed to proceed for 0, 30 and 60 min at 30 °C. At indicated time points, 50 μl aliquots were removed and heated at 100 °C for 5 min. Denatured proteins were removed through centrifugation and the supernatants were filtered through a 0.22 μm membrane. Samples were injected into an HPLC (Agilent 1260 infinity II) system equipped with a C18 reversed-phase column and a UV detector. Components were eluted isocratically with 98% A (150 mM Na2HPO4, pH 5.2) and 2% B (acetonitrile) in 15 min at a flow rate of 1 ml min^−1. The detection wavelength was 252 nm. GTP (Sigma, Cat# G8877) and c-di-GMP (Sigma, Cat# SML1228) were run as standards. The levels of synthesized c-di-GMP in the supernatants were determined from the standard curve obtained using known concentrations of c-di-GMP.

LuxP = target: LuxP; set-up: method as in PMID 18215018; conditions: established receptor LuxP; cited from earlier work
PctB-LBDE146D = target: T3, PctB-LBDE146D (Pseudomonas aeruginosa, UniProt Q9HW91, E146D); experiment: biochemical; format: binding; conditions: 700 μM DPD/AI-2 into 70 μM PctB-LBD E146D
T3 construct: the dCACHE-type LBDs of PctB and PctC; His6 (N, cleaved yes); made in house; host or cells: E. coli BL21(DE3) (pET-28a derivative)
T3 sequence (Q9HW91 32-276 E146D): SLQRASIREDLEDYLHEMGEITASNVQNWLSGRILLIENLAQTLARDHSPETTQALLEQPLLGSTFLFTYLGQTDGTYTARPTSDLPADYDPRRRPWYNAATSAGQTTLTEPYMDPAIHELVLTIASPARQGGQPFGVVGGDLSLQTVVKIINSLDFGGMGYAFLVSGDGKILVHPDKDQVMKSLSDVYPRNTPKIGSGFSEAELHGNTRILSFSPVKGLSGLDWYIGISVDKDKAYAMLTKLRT

KinD = target: T4, KinD (Bacillus subtilis, UniProt O31671); experiment: in vitro kinase assay, KinD autophosphorylation (LC-MS/MS); format: biochemical, B. subtilis; conditions: 100 μM ATP, 30 min, 30 °C
T4 construct: The genes encoding full-length KinD and rpHK1S-Z16 were cloned with a C-terminal His6 tag into pHSe5; made in house; host or cells: E. coli BL21(DE3) ΔluxS (pHSe5), membrane fractions
T4 sequence (O31671 whole entry): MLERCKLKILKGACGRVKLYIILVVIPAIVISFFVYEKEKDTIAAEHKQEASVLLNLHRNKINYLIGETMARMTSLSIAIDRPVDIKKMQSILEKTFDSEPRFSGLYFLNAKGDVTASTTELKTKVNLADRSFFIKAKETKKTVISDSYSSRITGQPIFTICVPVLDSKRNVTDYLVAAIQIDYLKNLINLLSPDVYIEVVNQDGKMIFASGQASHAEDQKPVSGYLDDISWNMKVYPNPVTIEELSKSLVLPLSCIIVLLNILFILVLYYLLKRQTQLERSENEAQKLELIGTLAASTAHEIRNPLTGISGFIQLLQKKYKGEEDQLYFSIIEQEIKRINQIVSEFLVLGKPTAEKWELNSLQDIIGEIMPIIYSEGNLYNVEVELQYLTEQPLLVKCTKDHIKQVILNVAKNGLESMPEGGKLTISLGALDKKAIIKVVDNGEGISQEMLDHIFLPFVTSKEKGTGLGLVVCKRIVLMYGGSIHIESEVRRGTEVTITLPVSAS
Protocol: Twenty micrograms of membrane fractions containing KinD was preincubated in a 50-μl reaction system containing 50 mM Tris-HCl (pH 7.8), 2 mM DTT, 25 mM NaCl, 25 mM KCl, 5 mM MgCl2 for 10 min at 30 °C. […] A control experiment was performed without ATP to check the initial phosphorylation state of KinD. After 30 min incubation at 30 °C, products were resolved by SDS-PAGE, and the gel bands corresponding to KinD were excised and used for detection and quantification of phosphorylation by nano-LC-MS/MS.
Gel slices excised from SDS-PAGE gels were destained with three washes in 100 μl of 100 mM ammonium bicarbonate in 50% acetonitrile at 37 °C for 15 min. Destained gel pieces were dried in a SpeedVac (Thermo Fisher Scientific) for 15 min. 10 mM DTT in 25 mM ammonium bicarbonate was added to cover the gel pieces and incubated at 56 °C for 1 h. […] The dried peptide samples were resolubilized in 0.1% formic acid and analyzed in C18 reversed-phase column connected to an EASY-nLC 1000 interfaced via a Nanospray Flex ion source to an Orbitrap Fusion Tribrid mass spectrometer (Thermo Fisher Scientific). […] Protein identification and quantification were performed using Mascot Daemon version 2.5.1 (Matrix Science, Boston, USA) considering the specific modifications.

PctA-LBD D146A = target: T5, PctA-LBD D146A (Pseudomonas aeruginosa, UniProt G3XD24, D146A); experiment: biochemical; format: binding; conditions: PctA-LBD D146A 70 μM; DPD/AI-2 700 μM
T5 construct: Amino acids 30-278 and 36-360 of PctA and TlpQ, respectively; His6 (N, cleaved yes); made in house; host or cells: E. coli BL21(DE3) (pET-28a derivative)
T5 sequence (G3XD24 30-278 D146A): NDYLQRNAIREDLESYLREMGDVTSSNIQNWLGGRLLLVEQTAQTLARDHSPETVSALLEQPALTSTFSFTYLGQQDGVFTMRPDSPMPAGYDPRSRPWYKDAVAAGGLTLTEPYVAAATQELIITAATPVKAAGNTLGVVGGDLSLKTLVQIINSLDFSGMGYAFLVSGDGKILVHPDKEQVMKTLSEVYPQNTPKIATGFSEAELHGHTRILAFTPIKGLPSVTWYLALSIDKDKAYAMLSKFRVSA

CC(=O)C(=O)C(O)CO (stereo not drawn) [DPD/AI-2, 4,5-dihydroxy-2,3-pentanedione]
Kd (PctA-LBD Y121A): 23000 nM and 22000 nM and 19000 nM | Kd (KinD-LBD): 120 nM and 160 nM and 150 nM | Kd (LsrB): 190 to 810 nM | Biovolume of P. aeruginosa (P. aeruginosa PAO1; WT, 1 h): 28364 μm3 mm-2 and 23058 μm3 mm-2 and 27608 μm3 mm-2 | Biovolume of P. aeruginosa (P. aeruginosa PAO1; WT, 10 h): 1281908 μm3 mm-2 and 1109100 μm3 mm-2 and 1052160 μm3 mm-2 | Biovolume of P. aeruginosa (P. aeruginosa PAO1; WT, 19 h): 3128446 μm3 mm-2 and 3141281 μm3 mm-2 and 3321156 μm3 mm-2 | Biovolume of P. aeruginosa (P. aeruginosa PAO1; ΔpctA, 1 h): 25418 μm3 mm-2 and 25743 μm3 mm-2 and 24604 μm3 mm-2 | Biovolume of P. aeruginosa (P. aeruginosa PAO1; ΔpctA, 10 h): 609991 μm3 mm-2 and 657748 μm3 mm-2 and 721040 μm3 mm-2 | Biovolume of P. aeruginosa (P. aeruginosa PAO1; ΔpctA, 19 h): 1305959 μm3 mm-2 and 1192157 μm3 mm-2 and 1109432 μm3 mm-2 | Biovolume of P. aeruginosa (P. aeruginosa PAO1; ΔpctAΔtlpQ, 1 h): 24520 μm3 mm-2 and 23099 μm3 mm-2 and 23881 μm3 mm-2 | Biovolume of P. aeruginosa (P. aeruginosa PAO1; ΔpctAΔtlpQ, 10 h): 372013 μm3 mm-2 and 288390 μm3 mm-2 and 355734 μm3 mm-2 | Biovolume of P. aeruginosa (P. aeruginosa PAO1; ΔpctAΔtlpQ, 19 h): 111554 μm3 mm-2 and 108961 μm3 mm-2 and 114758 μm3 mm-2 | Biovolume of P. aeruginosa (P. aeruginosa PAO1; ΔtlpQ, 1 h): 22029 μm3 mm-2 and 31306 μm3 mm-2 and 26285 μm3 mm-2 | Biovolume of P. aeruginosa (P. aeruginosa PAO1; ΔtlpQ, 10 h): 645081 μm3 mm-2 and 690688 μm3 mm-2 and 715157 μm3 mm-2 | Biovolume of P. aeruginosa (P. aeruginosa PAO1; ΔtlpQ, 19 h): 1292148 μm3 mm-2 and 1288991 μm3 mm-2 and 1359959 μm3 mm-2 | Concentration of c-di-GMP (rpHK1S-Z16; 100 μM DPD/AI-2, 30 min): 25.52 µM and 26.85 µM and 25.80 µM | Concentration of c-di-GMP (rpHK1S-Z16; 100 μM DPD/AI-2, 60 min): 33.20 µM and 34.39 µM and 33.48 µM | Concentration of c-di-GMP (rpHK1S-Z16; 200 μM DPD/AI-2, 30 min): 34.46 µM and 32.43 µM and 32.71 µM | Concentration of c-di-GMP (rpHK1S-Z16; 200 μM DPD/AI-2, 60 min): 45.28 µM and 43.18 µM and 41.92 µM | Kd (LuxP): 160 nM | Kd (PctB-LBDE146D): 220 nM and 270 nM and 230 nM | Phosphorylation level (%) of KinD (KinD; 10 μM DPD/AI-2): 27.45% and 24.59% and 21.92% and 23.68% | Phosphorylation level (%) of KinD (KinD; 50 μM DPD/AI-2): 49.23% and 54.72% and 52.70% and 57.14% | Kd (PctA-LBD D146A): 39000 nM and 30000 nM and 31000 nM

From article PMC7584622, “Sensing of autoinducer-2 by functionally distinct receptors in prokaryotes” (Nature Communications, 2020)
